Measured values reported in patent US20250127843A1, “ADRENOCORTICOTROPIC HORMONE PEPTIDE COMPOSITIONS AND METHODS OF USE” (FERRING B.V., priority 2021, published 2025).
No end group written: not given here.

Tests used:
[1] = tested on: damaged cells under conditions of oxidative stress; conditions: oxidative stress caused by short-term incubation with hydrogen peroxide; cited from earlier work
[2] = Stability of the peptide in aqueous test formulations: change in impurity content by UPLC after storage; format: physicochemical; conditions: for Δ Total impurities (difference in % (w/w) of impurities from Day 0 to Day 14) / Δ impurity at retention time 1.293 min (difference in % (w/w) of impurities from Day 0 to Day 14) / Δ impurity at retention time 4.923 min (difference in % (w/w) of impurities from Day 0 to Day 14) / Δ impurity at retention time 5.821 min (difference in % (w/w) of impurities from Day 0 to Day 14) / Δ impurity at retention time 6.267 min (difference in % (w/w) of impurities from Day 0 to Day 14) / Δ impurity at retention time 7.268 min (difference in % (w/w) of impurities from Day 0 to Day 14) / Δ impurity at retention time 10.47 min (difference in % (w/w) of impurities from Day 0 to Day 14): UPLC
Procedure: The effect of methionine on the stability of the peptide in an aqueous composition was evaluated. Test formulations of the peptide (1 mg/ml) in aqueous acetate buffer at pH 5.5 were prepared with or without methionine (1 mg/ml).
The effect of pH on the stability of the peptide in an aqueous composition was evaluated. Test formulations of the peptide in water (1 mg/ml) were prepared at a pH of 4.5, 5.0 or 5.5 using an acetate buffer. […]

[3] = tested on: membranes of the basal ganglia and cerebral cortex; conditions: cited from earlier work
[4] = tested on: cerebellar granule neurons; conditions: during glutamate neurotoxicity; cited from earlier work
PCNA = conditions: cited from earlier work
BDNF and NGF genes = conditions: cited from earlier work
Bcl-2 = conditions: cited from earlier work
[5] = tested on: nuclear membranes of nerve cells of the basal forebrain, hippocampus and cerebellum; conditions: cited from earlier work
[6] = peptide 1 mg/ml in water, acetate buffer pH 4.5, 14 days at 60° C.
[7] = peptide 1 mg/ml in water, acetate buffer pH 5.0, 14 days at 60° C.
[8] = peptide 1 mg/ml, aqueous acetate buffer pH 5.5, 14 days at 60° C.

Q: Which results are given for “MEHFPGP [Peptide, Met-Glu-His-Phe-Pro-Gly-Pro]”?
A: number of damaged cells [1]: reduce the number of damaged cells; stability of the peptide as a function of pH ([2]; pH 4.5, 5.0 or 5.5 acetate buffer, 14 days at 60° C.): most stable at pH 4.5; Δ Total impurities (difference in % (w/w) of impurities from Day 0 to Day 14) [2, 6]: 2.55 % (w/w); Δ impurity at retention time 1.293 min (difference in % (w/w) of impurities from Day 0 to Day 14) [2, 6]: 0.3 % (w/w); Δ impurity at retention time 4.923 min (difference in % (w/w) of impurities from Day 0 to Day 14) [2, 6]: 1.43 % (w/w); Δ impurity at retention time 5.821 min (difference in % (w/w) of impurities from Day 0 to Day 14) [2, 6]: 0.28 % (w/w); Δ impurity at retention time 6.267 min (difference in % (w/w) of impurities from Day 0 to Day 14) [2, 6]: 0 % (w/w); Δ impurity at retention time 7.268 min (difference in % (w/w) of impurities from Day 0 to Day 14) [2, 6]: 0.28 % (w/w); Δ impurity at retention time 10.47 min (difference in % (w/w) of impurities from Day 0 to Day 14) [2, 6]: 0.1 % (w/w); Δ Total impurities (difference in % (w/w) of impurities from Day 0 to Day 14) [2, 7]: 4.07 % (w/w); Δ impurity at retention time 1.293 min (difference in % (w/w) of impurities from Day 0 to Day 14) [2, 7]: 0.55 % (w/w); Δ impurity at retention time 4.923 min (difference in % (w/w) of impurities from Day 0 to Day 14) [2, 7]: 2.58 % (w/w); Δ impurity at retention time 5.821 min (difference in % (w/w) of impurities from Day 0 to Day 14) [2, 7]: 0.12 % (w/w); Δ impurity at retention time 6.267 min (difference in % (w/w) of impurities from Day 0 to Day 14) [2, 7]: 0.11 % (w/w); Δ impurity at retention time 7.268 min (difference in % (w/w) of impurities from Day 0 to Day 14) [2, 7]: 0.28 % (w/w); Δ impurity at retention time 10.47 min (difference in % (w/w) of impurities from Day 0 to Day 14) [2, 7]: 0.24 % (w/w); Δ Total impurities (difference in % (w/w) of impurities from Day 0 to Day 14) [2, 8]: 8.49 % (w/w); Δ impurity at retention time 1.293 min (difference in % (w/w) of impurities from Day 0 to Day 14) [2, 8]: 1.19 % (w/w); Δ impurity at retention time 4.923 min (difference in % (w/w) of impurities from Day 0 to Day 14) [2, 8]: 5.58 % (w/w); Δ impurity at retention time 5.821 min (difference in % (w/w) of impurities from Day 0 to Day 14) [2, 8]: 0.1 % (w/w); Δ impurity at retention time 6.267 min (difference in % (w/w) of impurities from Day 0 to Day 14) [2, 8]: 0.27 % (w/w); Δ impurity at retention time 7.268 min (difference in % (w/w) of impurities from Day 0 to Day 14) [2, 8]: 0.31 % (w/w); Δ impurity at retention time 10.47 min (difference in % (w/w) of impurities from Day 0 to Day 14) [2, 8]: 0.84 % (w/w); specific binding to membranes [3]: specifically bind to the membranes of the basal ganglia and cerebral cortex; survival of cerebellar granule neurons [4]: significantly increase the survival; expression of the nuclear protein PCNA (PCNA): significant increase in the expression; transcription of the neurotrophin BDNF and NGF genes (BDNF and NGF genes): rapid induction of the transcription; levels of Bcl-2 (Bcl-2): increase levels of Bcl-2; binding to nuclear membranes of nerve cells [5]: bind to the nuclear membranes of nerve cells of the basal forebrain, hippocampus and cerebellum
